Experimental data published in EPA's aquatic toxicity sets.

Tested on: Tetrahymena pyriformis
Test: 48 h IGC50 (-log10 mol/L); higher = more toxic

C=CC(=O)CCC
48 h IGC50 (-log10 mol/L): 4.66

C=CCOC(=O)CCCCCCCCC
48 h IGC50 (-log10 mol/L): 3.48

COc1cc(C=O)cc(O)c1OC
48 h IGC50 (-log10 mol/L): 2.61

CCCC(C)C=O (stereo not given)
48 h IGC50 (-log10 mol/L): 2.53

CCc1ccc(CO)cc1
48 h IGC50 (-log10 mol/L): 3.07

COC(=O)c1ccccc1
48 h IGC50 (-log10 mol/L): 3.23

CCCCCCC#CCCO
48 h IGC50 (-log10 mol/L): 4.13

CCOC(=O)C(C)Cl (stereo not given)
48 h IGC50 (-log10 mol/L): 2.57

COC(=O)c1ccc(OC)cc1O
48 h IGC50 (-log10 mol/L): 3.62

NCCc1ccccn1
48 h IGC50 (-log10 mol/L): 2.26

Cc1cc(Cl)c([N+](=O)[O-])cc1[N+](=O)[O-]
48 h IGC50 (-log10 mol/L): 5.33

Cc1cc(O)ccc1[N+](=O)[O-]
48 h IGC50 (-log10 mol/L): 4.73

CCC(=O)CC(=O)CC
48 h IGC50 (-log10 mol/L): 2.62

CCOC(=O)CI
48 h IGC50 (-log10 mol/L): 5.92

COC(=O)CC#N
48 h IGC50 (-log10 mol/L): 1.66

O=Cc1cccc(Cl)c1
48 h IGC50 (-log10 mol/L): 3.41

C=COC(=O)/C=C/C
48 h IGC50 (-log10 mol/L): 2.85

C=CS(=O)(=O)c1ccccc1
48 h IGC50 (-log10 mol/L): 4.28

Cc1ccc2ccccc2c1C=O
48 h IGC50 (-log10 mol/L): 4.23

Cc1cccc(C=O)c1
48 h IGC50 (-log10 mol/L): 3.08

Nc1c(Br)cc(Cl)cc1Br
48 h IGC50 (-log10 mol/L): 4.52

CCc1ccco1
48 h IGC50 (-log10 mol/L): 2.48

CC(C)(C)OC=O
48 h IGC50 (-log10 mol/L): 1.63

Nc1cc(F)c([N+](=O)[O-])cc1[N+](=O)[O-]
48 h IGC50 (-log10 mol/L): 4.69

Nc1c([N+](=O)[O-])cccc1[N+](=O)[O-]
48 h IGC50 (-log10 mol/L): 3.84

Oc1c(F)c(F)c(O)c(F)c1F
48 h IGC50 (-log10 mol/L): 4.84

Cc1ccc(Cl)c(C=O)c1F
48 h IGC50 (-log10 mol/L): 3.74

CCCCCCCS
48 h IGC50 (-log10 mol/L): 4.02

CC/C=C\CCCCCC=O
48 h IGC50 (-log10 mol/L): 3.95

O=C(c1ccccc1)c1cccc(Cl)c1
48 h IGC50 (-log10 mol/L): 4.55

CCC(=O)N(C)C
48 h IGC50 (-log10 mol/L): 1.43

CCCCC(O)CO (stereo not given)
48 h IGC50 (-log10 mol/L): 1.73

CCOC(=O)c1ccc(C)cc1
48 h IGC50 (-log10 mol/L): 3.68

CCCCCCC(=O)O
48 h IGC50 (-log10 mol/L): 2.89

OCCCCCCCCCl
48 h IGC50 (-log10 mol/L): 3.49

CCOC(=O)c1ccc(OC)cc1
48 h IGC50 (-log10 mol/L): 3.77

C1CSCCS1
48 h IGC50 (-log10 mol/L): 2.89

CCCCC/C=C/C(=O)O
48 h IGC50 (-log10 mol/L): 3.21

Nc1cccc([N+](=O)[O-])c1
48 h IGC50 (-log10 mol/L): 3.03

C=CC(=O)OCc1ccccc1
48 h IGC50 (-log10 mol/L): 4.35

COc1ccc(Cl)c(Cl)c1Cl
48 h IGC50 (-log10 mol/L): 4.64

O=C(O)c1cccc(Cl)c1
48 h IGC50 (-log10 mol/L): 2.87

CCc1ccc(Br)cc1
48 h IGC50 (-log10 mol/L): 3.67

CCCCCCC#CC(=O)OC
48 h IGC50 (-log10 mol/L): 4.32

CCC(CC)COC(C)=O
48 h IGC50 (-log10 mol/L): 2.88

CCCCCCC(=O)CCCCCC
48 h IGC50 (-log10 mol/L): 4.52

Nc1cc(Cl)c([N+](=O)[O-])cc1O
48 h IGC50 (-log10 mol/L): 4.17

O=[N+]([O-])c1ccccc1Cl
48 h IGC50 (-log10 mol/L): 3.68

O=C(OCc1ccccc1)c1ccccc1
48 h IGC50 (-log10 mol/L): 4.45

O=[N+]([O-])c1cccc2cccnc12
48 h IGC50 (-log10 mol/L): 3.08

CCOC(=O)c1ccc(Br)cc1
48 h IGC50 (-log10 mol/L): 4.33

CCN(C)CC
48 h IGC50 (-log10 mol/L): 2.24

CCCCCCCC(C)O (stereo not given)
48 h IGC50 (-log10 mol/L): 3.62

N#CC(=O)c1ccccc1
48 h IGC50 (-log10 mol/L): 3.31

CCCCCCOC=O
48 h IGC50 (-log10 mol/L): 2.62

O=[N+]([O-])c1cccc(O)c1
48 h IGC50 (-log10 mol/L): 3.51

Cc1cccc(C)n1
48 h IGC50 (-log10 mol/L): 2.19

c1ccc(Cc2cccnc2)cc1
48 h IGC50 (-log10 mol/L): 3.68

CCOC(=O)c1ccc(I)cc1
48 h IGC50 (-log10 mol/L): 4.53

Cc1cccc(C#N)c1
48 h IGC50 (-log10 mol/L): 2.75

Cc1cc(N)ccc1O
48 h IGC50 (-log10 mol/L): 4.31

c1ccc(Cc2ccccn2)cc1
48 h IGC50 (-log10 mol/L): 3.38

Cc1cccc2ccccc12
48 h IGC50 (-log10 mol/L): 3.74

CC(O)Cc1ccccc1 (stereo not given)
48 h IGC50 (-log10 mol/L): 2.38

CC(C)=CC=O
48 h IGC50 (-log10 mol/L): 3.09
